Assay results published in PubChem BioAssay (NCI).
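Where inhibition never reached the appropriate level, the endpoint shown equals the highest concentration tested. Otherwise, values were interpolated linearly from a five-concentration, 48-hour dose response in 96-well plates. GI50 is the concentration that inhibits growth by half. TGI marks complete inhibition of growth.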

How the values were obtained:
Experiment in all cases: NCI anticancer screen, dose series, 48 h
K-562 leukemia = test system: K-562 leukemia
CAKI-1 renal = test system: CAKI-1 renal
SW-620 colon = test system: SW-620 colon
NCI-H522 lung = test system: NCI-H522 lung
OVCAR-3 ovarian = test system: OVCAR-3 ovarian
HL-60(TB) leukemia = test system: HL-60(TB) leukemia
SK-OV-3 ovarian = test system: SK-OV-3 ovarian
HCC-2998 colon = test system: HCC-2998 colon
HT29 colon = test system: HT29 colon
MALME-3M melanoma = test system: MALME-3M melanoma

| SMILES | TGI (K-562 leukemia) [µM] | TGI (CAKI-1 renal) [µM] | TGI (SW-620 colon) [µM] | TGI (NCI-H522 lung) [µM] | TGI (OVCAR-3 ovarian) [µM] | TGI (HL-60(TB) leukemia) [µM] | TGI (SK-OV-3 ovarian) [µM] | TGI (HCC-2998 colon) [µM] | TGI (HT29 colon) [µM] | TGI (MALME-3M melanoma) [µM] | GI50 (K-562 leukemia) [µM] | GI50 (CAKI-1 renal) [µM] | GI50 (OVCAR-3 ovarian) [µM] | GI50 (HCC-2998 colon) [µM] | GI50 (HL-60(TB) leukemia) [µM] | GI50 (SK-OV-3 ovarian) [µM] | GI50 (NCI-H522 lung) [µM] | GI50 (HT29 colon) [µM] | GI50 (SW-620 colon) [µM] | GI50 (MALME-3M melanoma) [µM] |
| --- | --- | --- | --- | --- | --- | --- | --- | --- | --- | --- | --- | --- | --- | --- | --- | --- | --- | --- | --- | --- |
| c1ccc(CN(Cn2cccn2)Cn2cccn2)nc1 | > 100 | > 100 | > 100 | > 100 | > 100 | > 100 | > 100 | – | – | – | – | – | – | – | – | – | – | – | – | – |
| O=c1cnn2c(n1)sc1ccc3ccccc3c12 | > 100 | > 100 | > 100 | – | > 100 | > 100 | > 100 | > 100 | > 100 | > 100 | – | – | – | – | – | – | – | – | – | – |
| Cc1ccccc1CN1CC=c2ccccc2=N1 | > 100 | > 100 | > 100 | – | > 100 | – | > 100 | > 100 | > 100 | > 100 | – | – | – | – | – | – | – | – | – | – |
| Cc1cc(Cl)ccc1N=C1NC(=O)C(CC(=O)Nc2ccc(Cl)cc2Cl)S1 (centres undefined) | > 100 | > 100 | > 100 | – | > 100 | – | > 100 | > 100 | > 100 | > 100 | – | – | – | – | – | – | – | – | – | – |
| COc1ccc(C2=NN(C(C)=O)C(c3cn(-c4ccccc4)nc3-c3ccc(Cl)cc3)C2)cc1 (centres undefined) | > 100 | > 100 | > 100 | – | > 100 | > 100 | > 100 | > 100 | – | – | > 100 | > 100 | > 100 | > 100 | > 100 | 4.64 | – | – | – | – |
| CC1C=CC(=O)C(n2cc(F)c(=O)[nH]c2=O)O1 (centres undefined) | 79.8 | 24.2 | 36.7 | – | 31.2 | 47.9 | 61 | – | 32.5 | 35.5 | – | – | – | – | – | – | – | – | – | – |
| CC1OC(OCC2COC(O)(Oc3c(-c4ccc(O)c(O)c4)oc4cc(O)cc(O)c4c3=O)C(O)C2O)C(O)C(O)C1O (centres undefined) | > 100 | > 100 | > 100 | – | > 100 | > 100 | > 100 | > 100 | > 100 | > 100 | – | – | – | – | – | – | – | – | – | – |
| Nc1ccc(/C=N/Nc2ccnc3c(N)cccc23)c2cccnc12 | – | – | – | 3.62 | 3.16 | – | 3.3 | 3.3 | 3.47 | – | – | – | 1.63 | 1.81 | – | 1.82 | 1.84 | 1.92 | – | – |
| NS(=O)(=O)c1ccc(N2N=C3c4ccccc4CC3C2c2ccc(Cl)cc2)cc1 (centres undefined) | > 100 | 32.8 | 29.8 | 28.6 | 34.7 | – | 49.4 | 27.7 | > 100 | 19.6 | 10.6 | 18.2 | 17.3 | 10.3 | – | 12.4 | 8.44 | 15.7 | 4.71 | 4.23 |
| NC(=S)N/N=C1/C(=O)N(c2ccc(Cl)cc2Cl)C(=O)C(=O)C1c1nc2ccccc2s1 (centres undefined) | > 100 | > 100 | > 100 | > 100 | > 100 | – | > 100 | > 100 | > 100 | > 100 | – | – | – | – | – | – | – | – | – | – |
| CC1=C(C(=O)NCc2ccccc2)C(c2ccccc2[N+](=O)[O-])C(C(=O)NCc2ccccc2)=C(C)N1 | 24.8 | 50 | 28.1 | – | 19.2 | 13.2 | – | 31.2 | 28 | 27 | – | – | – | – | – | – | – | – | – | – |
| CCOC(=O)c1sc(=S)c2c(C(=O)OCC)c(C(=O)OCC)sc2c1C(=O)OCC | 25.1 | 93.9 | 56.4 | 26.4 | 68 | – | > 100 | 28.7 | > 100 | – | 10.6 | 26.5 | 16 | 13.1 | – | 43.3 | 10.6 | 28 | 23.7 | – |
| O=c1c2ccccc2c2nc3ccccc3nc2n1C1CCCCC1 | > 100 | > 100 | > 100 | > 100 | > 100 | – | > 100 | > 100 | > 100 | > 100 | – | – | – | – | – | – | – | – | – | – |
| COc1ccc2c(c1)CC[C@@H]1[C@@H]2CC[C@]2(C)C(c3ccco3)=C(C=O)C[C@@H]12 | 22.7 | 7.59 | > 100 | > 100 | 12.4 | – | 77.7 | 26.3 | > 100 | – | 3.56 | 2.5 | 2.08 | 6.78 | – | 28.9 | 21.1 | 5.37 | 6.26 | – |
| CC(C)=CC(=O)Cc1nc2cc(C)c(C)cc2[nH]c1=O | > 100 | > 100 | > 100 | – | > 100 | > 100 | > 100 | > 100 | > 100 | > 100 | – | – | – | – | – | – | – | – | – | – |
| C=C(C)[C@@H]1CC[C@]2(C)[C@H](CC[C@@H]3[C@H]4[C@H]5OC[C@@]4(CCC5(C)C)CC[C@]32C)[C@@]1(C)CCCN | 9.01 | 3 | 3.48 | – | 3.07 | – | – | 2.91 | – | 3.45 | 2.25 | 1.62 | 1.68 | 1.49 | – | – | – | – | 1.77 | 1.77 |
